A word on the IC50: it is the concentration needed to halve the response being measured. Read a high IC50 as weaker potency.

Test [1] has as its target HIF‐1α/p300 interaction (Homo sapiens, UniProt Q09472). In words: Fluorescence anisotropy competition assay (displacement of FITC‐Ahx‐HIF‐1α786–826 tracer from p300). The note with it: p300 (100 nM); for IC50: FA competition, FITC‐Ahx‐HIF‐1α786–826 tracer, 20 mM Tris, 100 mM NaCl 0.1 mM DTT, pH 7.46, read after 45 minutes at room temperature, triplicate. Type of test: binding. On the procedure: Fluorescence anisotropy assays were performed in 384‐well plates (Greiner Bio‐one). Each experiment was run in triplicate and the fluorescence anisotropy measured using a Perkin–Elmer EnVisionTM 2103 MultiLabel plate reader, with excitation at 480 nm (30 nm bandwidth), polarised dichroic mirror at 505 nm and emission at 535 nm (40 nm bandwidth, S and P polarised). All assays were performed in 20 mM Tris, 100 mM NaCl 0.1 mM DTT, pH 7.46 unless otherwise stated and data analysed following previously published methods.
Where I is the total intensity, G is an instrument factor which was set to 1 for all experiments and r is the anisotropy. The average anisotropy (across three experimental replicates) and the standard deviation of these values were then calculated and fit to a sigmoidal logistic model [Eq. (3)] using OriginPro 9.0 which provided the IC50 and error values: y = r max + (r min−r max)/(1+(x/xo) p).
FA competition assays were performed in 384 well plates with the concentration of peptide competitor typically starting from 850 μM, diluted over 16 points in 1/2 regime with fixed protein and tracer concentrations. […] For control wells, the tracer peptide was replaced with an identical volume of assay buffer. The total volume in each well was 60 μL. Plates were read after 45 minutes of incubation at room temperature.
For orientation: Polarisation of emitted light reports the rotation of a fluorescent probe.

For test [2], the target named is p300 (UniProt Q09472 1-2414). In words: fluorescence polarisation; fluorescence anisotropy competition; peptide competitor diluted from about 850 μM over 16 points against fixed p300 (100 nM) and FITC tracer (25 nM in the legend, 50 nM in the methods); 20 mM Tris, 100 mM NaCl, 0.1 mM DTT, pH 7.46; 45 minutes at room temperature. The following applies: both partners purified.
Chain of p300 (Q09472 whole entry): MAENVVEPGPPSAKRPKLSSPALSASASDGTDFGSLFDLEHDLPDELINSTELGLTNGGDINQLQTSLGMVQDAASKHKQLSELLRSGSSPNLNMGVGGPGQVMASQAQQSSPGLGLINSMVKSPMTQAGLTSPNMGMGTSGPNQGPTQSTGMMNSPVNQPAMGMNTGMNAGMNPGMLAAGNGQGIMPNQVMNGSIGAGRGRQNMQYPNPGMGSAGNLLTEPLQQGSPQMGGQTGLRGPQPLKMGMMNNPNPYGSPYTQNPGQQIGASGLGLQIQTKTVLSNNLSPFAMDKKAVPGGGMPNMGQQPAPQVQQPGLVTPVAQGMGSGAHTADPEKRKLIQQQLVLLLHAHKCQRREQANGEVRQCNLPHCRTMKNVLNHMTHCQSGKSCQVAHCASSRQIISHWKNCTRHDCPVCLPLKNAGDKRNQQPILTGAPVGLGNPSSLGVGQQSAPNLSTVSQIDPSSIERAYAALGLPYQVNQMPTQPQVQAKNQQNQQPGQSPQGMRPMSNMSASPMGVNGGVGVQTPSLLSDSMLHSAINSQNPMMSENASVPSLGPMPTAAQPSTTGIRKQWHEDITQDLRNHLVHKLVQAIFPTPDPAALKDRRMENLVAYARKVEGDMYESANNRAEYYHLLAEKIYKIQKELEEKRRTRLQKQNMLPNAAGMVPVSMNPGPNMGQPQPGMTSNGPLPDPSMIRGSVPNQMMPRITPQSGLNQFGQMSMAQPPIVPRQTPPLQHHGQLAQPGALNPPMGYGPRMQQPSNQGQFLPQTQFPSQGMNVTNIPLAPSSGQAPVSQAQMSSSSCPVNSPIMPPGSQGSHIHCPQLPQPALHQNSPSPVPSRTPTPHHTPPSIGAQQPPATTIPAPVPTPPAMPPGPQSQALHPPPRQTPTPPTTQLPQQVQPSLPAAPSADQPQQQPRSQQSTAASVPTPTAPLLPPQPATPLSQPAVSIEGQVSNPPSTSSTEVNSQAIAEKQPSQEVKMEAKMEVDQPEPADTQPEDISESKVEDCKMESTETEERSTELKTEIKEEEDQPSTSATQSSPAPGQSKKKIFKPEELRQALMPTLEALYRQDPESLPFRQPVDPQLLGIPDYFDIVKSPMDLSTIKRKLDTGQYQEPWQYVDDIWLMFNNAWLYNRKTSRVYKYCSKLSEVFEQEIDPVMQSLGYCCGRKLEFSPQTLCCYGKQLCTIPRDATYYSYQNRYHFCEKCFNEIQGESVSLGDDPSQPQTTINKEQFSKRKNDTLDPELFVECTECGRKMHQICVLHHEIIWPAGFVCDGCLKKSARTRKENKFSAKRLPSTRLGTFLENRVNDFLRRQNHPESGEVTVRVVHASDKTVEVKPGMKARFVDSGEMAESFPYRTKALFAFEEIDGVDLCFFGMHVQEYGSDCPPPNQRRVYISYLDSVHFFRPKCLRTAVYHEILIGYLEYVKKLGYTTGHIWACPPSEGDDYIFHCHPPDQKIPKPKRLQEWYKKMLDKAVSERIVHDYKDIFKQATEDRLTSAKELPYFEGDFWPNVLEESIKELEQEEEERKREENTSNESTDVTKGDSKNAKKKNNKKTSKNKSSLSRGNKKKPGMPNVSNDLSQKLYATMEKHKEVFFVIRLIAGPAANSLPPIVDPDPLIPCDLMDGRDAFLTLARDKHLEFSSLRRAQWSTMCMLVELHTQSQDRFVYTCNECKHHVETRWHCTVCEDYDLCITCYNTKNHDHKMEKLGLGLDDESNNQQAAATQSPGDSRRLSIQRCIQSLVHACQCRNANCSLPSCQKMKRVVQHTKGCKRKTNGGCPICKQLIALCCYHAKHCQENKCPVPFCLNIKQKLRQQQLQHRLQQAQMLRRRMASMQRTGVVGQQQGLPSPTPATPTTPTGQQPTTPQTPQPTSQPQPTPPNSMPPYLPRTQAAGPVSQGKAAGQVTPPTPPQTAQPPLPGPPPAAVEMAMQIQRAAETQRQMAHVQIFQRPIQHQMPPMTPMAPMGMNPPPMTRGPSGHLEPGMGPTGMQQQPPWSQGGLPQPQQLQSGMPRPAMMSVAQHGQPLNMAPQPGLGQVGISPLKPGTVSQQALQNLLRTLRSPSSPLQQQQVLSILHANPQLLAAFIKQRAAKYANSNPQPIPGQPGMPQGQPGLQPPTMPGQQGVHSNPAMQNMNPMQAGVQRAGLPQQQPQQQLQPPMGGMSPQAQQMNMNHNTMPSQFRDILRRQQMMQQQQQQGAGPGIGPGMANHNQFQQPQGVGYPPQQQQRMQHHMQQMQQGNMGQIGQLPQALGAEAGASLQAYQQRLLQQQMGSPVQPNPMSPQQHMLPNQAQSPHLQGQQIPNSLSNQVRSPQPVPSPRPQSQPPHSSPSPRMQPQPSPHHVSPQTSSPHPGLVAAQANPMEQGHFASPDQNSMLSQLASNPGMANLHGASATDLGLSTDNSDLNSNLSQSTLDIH

Bridge positions count the residues as written; N and C are the ends. Ends that are not written are not given here. Peptide text beside a SMILES is read from it.

In the case of `CC(=O)N[C@@H](CC(C)C)C(=O)N[C@@H](CCC(N)=O)C(=O)NCC(=O)N[C@H]1CSSC[C@@H](C(=O)N[C@@H](C)C(=O)N[C@@H](CC(C)C)C(=O)N[C@@H](CC(=O)O)C(=O)N[C@@H](CCC(N)=O)C(=O)N[C@H](C(=O)N[C@@H](CC(N)=O)C(N)=O)C(C)C)NC(=O)[C@H](CC(C)C)NC(=O)[C@H](CC(C)C)NC(=O)[C@H](CCC(=O)O)NC1=O` [HIF‐1α812–826 oxE816C‐R820C] (Ac-LQGCELLCALDQVN-NH2; disulfide 4-8), the IC50 in test [1] was above 600 µM.
On the same count and under the same terms, the value for `CC(=O)N[C@@H](CC(C)C)C(=O)N[C@@H](CCC(N)=O)C(=O)NCC(=O)N[C@@H](CS)C(=O)N[C@@H](CCC(=O)O)C(=O)N[C@@H](CC(C)C)C(=O)N[C@@H](CC(C)C)C(=O)N[C@@H](CS)C(=O)N[C@@H](C)C(=O)N[C@@H](CC(C)C)C(=O)N[C@@H](CC(=O)O)C(=O)N[C@@H](CCC(N)=O)C(=O)N[C@H](C(=O)N[C@@H](CC(N)=O)C(N)=O)C(C)C` [HIF‐1α812–826 redE816C‐R820C] (Ac-LQGCELLCALDQVN-NH2) was 9.9 µM.
For “Ac-LQGEELLRALDQVN-NH2 [wt‐HIF‐1α812–826, wild‐type HIF‐1α helix 3 peptide, N‐acetyl, C‐terminal amide]”, the “Inhibition / tracer displacement in FA competition assay” value in test [1] (FITC‐Ahx‐HIF‐1α786–826 tracer (25 nM), pH 7.46) was “weak inhibition and could not fully displace tracer”.

B1: HIF‐1α_(812–826) sE816C‐R820C (peptide, UniProt Q16665 812-826, looked up)
peptide: Ac-LLQGCELLCALDQVN
modifications: bridge 5-9; not fully specified (bridges)
notes: Made on Rink Amide MBHA resin, so probably a C-terminal amide; also called stapled peptide; dibromomaleimide stapled (s) E816C-R820C; source: synthetic peptide
B1 registered an IC50 in test [2] of 30.3 ± 5 µM.
